Laboratory results reported in US7998493B2, “Cosmetic or dermopharmaceutical compositions which are used to reduce bags and circles under the eyes” (Sederma SAS, priority 2002, dated 2011).
Peptide text beside a SMILES is read from it. * marks the point of attachment. Palmitoyl = CCCCCCCCCCCCCCCC(=O)*

Tests used:
[1] = test system: Normal human keratinocytes and fibroblasts; test: Cell viability by conventional MTT test; format: cell-based; conditions: maximum concentration used (45 ppm)
Experimental: Normal human keratinocytes and fibroblasts are cultured in a conventional medium in the presence or absence of various concentrations (10-45 ppm) of peptide Pal-GQPR (SEQ ID NO:2). After 24 hours the cells are rinsed in the same medium without Pal-GQPR (SEQ ID NO:2) and, after being subjected to irradiation of 35 mJ/cm^2, the same cells are returned to the culture for 48 hours, without Pal-GQPR (SEQ ID NO:2) or in its presence in the same concentrations as during the initial culture period. Cellular IL-6 is then determined using a standard ELISA test kit.
In parallel with this, to make certain that the concentration reductions observed were not due to cell mortality induced by the peptide itself, viability of the cells was verified by the conventional MTT test.

[2] = target: Converting enzyme (EC 3.4.15.1) (Homo sapiens, UniProt P12821); test: ACE-inhibition test (FAPGG decomposition, ΔOD at 340 nm; derived from Sigma Diagnostics method No. 305-UV); format: biochemical; conditions: for ΔOD: 340 nm, mean of five tests
Converting enzyme (EC 3.4.15.1), sequence (P12821 30-1306): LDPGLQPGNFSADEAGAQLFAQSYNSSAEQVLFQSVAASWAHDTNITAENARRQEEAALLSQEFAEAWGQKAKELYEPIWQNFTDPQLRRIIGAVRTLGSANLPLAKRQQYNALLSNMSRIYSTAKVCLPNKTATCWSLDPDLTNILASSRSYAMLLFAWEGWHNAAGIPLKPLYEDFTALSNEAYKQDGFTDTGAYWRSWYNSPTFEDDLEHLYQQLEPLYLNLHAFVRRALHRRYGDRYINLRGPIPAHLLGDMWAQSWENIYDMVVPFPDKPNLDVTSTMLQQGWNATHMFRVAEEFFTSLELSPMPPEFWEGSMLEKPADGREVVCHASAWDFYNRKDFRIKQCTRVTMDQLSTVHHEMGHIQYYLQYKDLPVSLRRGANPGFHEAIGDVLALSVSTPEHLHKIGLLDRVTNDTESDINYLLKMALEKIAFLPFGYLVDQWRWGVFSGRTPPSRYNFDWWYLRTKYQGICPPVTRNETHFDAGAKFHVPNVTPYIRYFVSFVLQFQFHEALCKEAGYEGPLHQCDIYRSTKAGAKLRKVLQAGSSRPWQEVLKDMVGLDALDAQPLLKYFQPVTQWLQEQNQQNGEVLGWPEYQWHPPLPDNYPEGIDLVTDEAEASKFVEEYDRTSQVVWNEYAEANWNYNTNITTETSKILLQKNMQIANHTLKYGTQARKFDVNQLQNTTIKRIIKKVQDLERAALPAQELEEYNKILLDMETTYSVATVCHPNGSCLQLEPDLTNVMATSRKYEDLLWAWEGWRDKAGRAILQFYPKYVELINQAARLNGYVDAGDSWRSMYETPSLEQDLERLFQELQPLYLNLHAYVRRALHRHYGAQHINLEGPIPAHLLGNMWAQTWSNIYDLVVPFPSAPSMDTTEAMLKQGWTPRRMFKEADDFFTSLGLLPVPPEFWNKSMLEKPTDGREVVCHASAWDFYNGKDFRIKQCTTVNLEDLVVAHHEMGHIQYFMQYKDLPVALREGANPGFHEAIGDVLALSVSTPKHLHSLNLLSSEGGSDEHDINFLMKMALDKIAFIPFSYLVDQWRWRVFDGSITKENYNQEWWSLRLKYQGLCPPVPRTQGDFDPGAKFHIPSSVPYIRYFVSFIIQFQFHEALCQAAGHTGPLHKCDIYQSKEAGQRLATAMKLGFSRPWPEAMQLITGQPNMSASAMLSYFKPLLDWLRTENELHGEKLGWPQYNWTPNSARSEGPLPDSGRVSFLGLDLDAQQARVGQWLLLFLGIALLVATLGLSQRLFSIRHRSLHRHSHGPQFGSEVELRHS
Excerpt: The test is derived from Sigma Diagnostics method No. 305-UV.
Converting enzyme (EC 3.4.15.1) decomposes synthetic tripeptide FAPGG into FAP+glycylglycine. The change in optical density (ΔOD) at 340 nm is directly proportional to disappearance of the FAPGG, which allows a quantification of the converting enzyme activity.
The inhibiting effect of a compound is investigated according to the same principle, but in the presence of various concentrations of the test compounds.

[3] = target: angiotensin converting enzyme (EC 3.4.15.1); test: cell-based or functional assay
H-Val-Trp = test system: T1, H-Val-Trp
T1 sequence: VW

CCCCCCCCCCCCCCCC(=O)NCC(=O)N[C@@H](CCC(N)=O)C(=O)N1CCC[C@H]1C(=O)N[C@@H](CCCNC(=N)N)C(=O)O [N-Palmitoyl-Gly-Gln-Pro-Arg] (Palmitoyl-GQPR-OH)
Cytotoxic effect (cell viability, MTT) [1]: does not exert any cytotoxic effect

H-Val-Trp
Inhibition ([2]; peptide 10 ppm): 27.3%
ΔOD ([2]; peptide 10 ppm): 0.080
Inhibition ([2]; peptide 50 ppm): 83.4%
ΔOD ([2]; peptide 50 ppm): 0.018

H-Val-Trp (peptide)
Inhibition (converting enzyme activity, FAPGG hydrolysis, ΔOD at 340 nm), peptide at 10 ppm [3]: 27.3%
Inhibition (converting enzyme activity, FAPGG hydrolysis, ΔOD at 340 nm), peptide at 50 ppm [3]: 83.4%

angiotensin converting enzyme (EC 3.4.15.1)
ΔOD (340 nm, FAPGG hydrolysis by converting enzyme), peptide at 10 ppm (H-Val-Trp): 0.08 ΔOD
ΔOD (340 nm, FAPGG hydrolysis by converting enzyme), peptide at 50 ppm (H-Val-Trp): 0.018 ΔOD
